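Five compound concentrations were applied to cells in 96-well plates for 48 hours; endpoints were derived by simple linear interpolation of the resulting dose-response curve. Here, GI50 denotes the concentration required for 50% inhibition of growth.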 The source made the active and inactive calls. Rule as the data show it: active = GI50 up to about 1.1 µM and inactive = higher.
Legend:
Experiment in all cases: growth of human tumour cells (NCI), 48 h
[1] = system: RPMI-8226
[2] = system: A498
[3] = system: A549
[4] = system: BT-549
[5] = system: CAKI-1
[6] = system: CCRF-CEM
[7] = system: COLO 205
[8] = system: DU-145
[9] = system: EKVX
[10] = system: HCC 2998
[11] = system: HCT-116
[12] = system: HCT-15
[13] = system: HOP-62
[14] = system: HOP-92
[15] = system: HT-29
[16] = system: IGROV-1
[17] = system: KM12
[18] = system: M14
[19] = system: MDA-MB-231
[20] = system: MDA-MB-435
[21] = system: MDA-N
[22] = system: MOLT-4
[23] = system: Malme-3M
[24] = system: NCI-H23
[25] = system: NCI-H460
[26] = system: NCI-H522
[27] = system: OVCAR-3
[28] = system: OVCAR-4
[29] = system: OVCAR-5
[30] = system: PC-3
[31] = system: SF-268
[32] = system: SF-295
[33] = system: SK-MEL-28
[34] = system: SK-MEL-2
[35] = system: SK-MEL-5
[36] = system: SK-OV-3
[37] = system: SN12C
[38] = system: SNB-19
[39] = system: SNB-75
[40] = system: SR
[41] = system: SW-620
[42] = system: TK-10
[43] = system: U-251
[44] = system: UACC-257
[45] = system: UACC-62
[46] = system: UO-31
[47] = system: 786-0
[48] = system: ACHN
[49] = system: HL-60
[50] = system: K562
[51] = system: LOX IMVI
[52] = system: MCF7
[53] = system: NCI-H226
[54] = system: NCI/ADR-RES
[55] = system: OVCAR-8
[56] = system: RXF 393
[57] = system: SF-539
[58] = system: T47D

Q: Which GI50 [1] does the source give for `O=C(c1ccc(Cl)cc1Cl)N1CCN(C(=O)c2ccc(Cl)cc2Cl)C1=S` here?
A: The GI50 was 12.9 µM (inactive).

Q: `COc1ccc(CC(CO)NC(=O)OCc2ccccc2)cc1Oc1ccc(CC(CO)NC(=O)OCc2ccccc2)cc1` (stereo not given) was tested. Which GI50 [2] did it give?
A: The GI50 was 15.5 µM (inactive).

Q: What about the GI50 [3] of the same molecule?
A: Its GI50 is 11.7 µM (inactive).

Q: And the GI50 [4]?
A: The GI50 was 12.4 µM (inactive).

Q: And the GI50 [5]?
A: Its GI50 is 20.4 µM (inactive).

Q: And the GI50 [6]?
A: The GI50 was 5.77 µM (inactive).

Q: And the GI50 [7]?
A: The GI50 was 23.1 µM (inactive).

Q: What about the GI50 [8] of the same molecule?
A: Its GI50 is 15.4 µM (inactive).

Q: And the GI50 [9]?
A: The GI50 was 3.85 µM (inactive).

Q: And the GI50 [10]?
A: The GI50 was 21.2 µM (inactive).

Q: What about the GI50 [11] of the same molecule?
A: The GI50 was 15.1 µM (inactive).

Q: What about the GI50 [12] of the same molecule?
A: The GI50 was 29.4 µM.

Q: What about the GI50 [13] of the same molecule?
A: The GI50 was 15.3 µM (inactive).

Q: What about the GI50 [14] of the same molecule?
A: Its GI50 is 18.3 µM (inactive).

Q: What about the GI50 [15] of the same molecule?
A: Its GI50 is 11.1 µM (inactive).

Q: What about the GI50 [16] of the same molecule?
A: Its GI50 is 11 µM (inactive).

Q: What about the GI50 [17] of the same molecule?
A: Its GI50 is 12.2 µM (inactive).

Q: And the GI50 [18]?
A: The GI50 was 10.7 µM (inactive).

Q: What about the GI50 [19] of the same molecule?
A: The GI50 was 13.1 µM (inactive).

Q: And the GI50 [20]?
A: Its GI50 is 15.3 µM (inactive).

Q: What about the GI50 [21] of the same molecule?
A: The GI50 was 15.6 µM (inactive).

Q: What about the GI50 [22] of the same molecule?
A: The GI50 was 3.43 µM (inactive).

Q: And the GI50 [23]?
A: Its GI50 is 7.91 µM (inactive).

Q: What about the GI50 [24] of the same molecule?
A: Its GI50 is 16.5 µM (inactive).

Q: What about the GI50 [25] of the same molecule?
A: The GI50 was 15.7 µM (inactive).

Q: What about the GI50 [26] of the same molecule?
A: The GI50 was 1.47 µM (inactive).

Q: What about the GI50 [27] of the same molecule?
A: The GI50 was 13.1 µM (inactive).

Q: And the GI50 [28]?
A: Its GI50 is 27.9 µM (inactive).

Q: And the GI50 [29]?
A: The GI50 was 15 µM (inactive).

Q: And the GI50 [30]?
A: The GI50 was 11.2 µM (inactive).

Q: What about the GI50 [1] of the same molecule?
A: The GI50 was 6.27 µM (inactive).

Q: And the GI50 [31]?
A: The GI50 was 7.82 µM (inactive).

Q: And the GI50 [32]?
A: The GI50 was 11.6 µM (inactive).

Q: What about the GI50 [33] of the same molecule?
A: Its GI50 is 18.3 µM (inactive).

Q: And the GI50 [34]?
A: Its GI50 is 16.1 µM (inactive).

Q: What about the GI50 [35] of the same molecule?
A: The GI50 was 5.09 µM (inactive).

Q: What about the GI50 [36] of the same molecule?
A: The GI50 was 13.4 µM (inactive).

Q: And the GI50 [37]?
A: Its GI50 is 16.7 µM (inactive).

Q: What about the GI50 [38] of the same molecule?
A: The GI50 was 19 µM (inactive).

Q: What about the GI50 [39] of the same molecule?
A: Its GI50 is 0.37 µM (active).

Q: And the GI50 [40]?
A: The GI50 was 26.7 µM (inactive).

Q: What about the GI50 [41] of the same molecule?
A: The GI50 was 32.2 µM (inactive).

Q: What about the GI50 [42] of the same molecule?
A: Its GI50 is 19.4 µM (inactive).

Q: And the GI50 [43]?
A: The GI50 was 21.2 µM (inactive).

Q: What about the GI50 [44] of the same molecule?
A: Its GI50 is 17 µM (inactive).

Q: And the GI50 [45]?
A: The GI50 was 11.5 µM (inactive).

Q: What about the GI50 [46] of the same molecule?
A: The GI50 was 14.3 µM (inactive).

Q: Which results are given for `Cc1cc(Cc2cc(C)c(N)cc2N)c(N)cc1N`?
A: GI50 [47]: > 100 µM (inactive); GI50 [2]: > 100 µM (inactive); GI50 [3]: > 100 µM (inactive); GI50 [48]: > 100 µM (inactive); GI50 [4]: > 100 µM (inactive); GI50 [5]: > 100 µM (inactive); GI50 [7]: > 100 µM (inactive); GI50 [8]: > 100 µM (inactive); GI50 [9]: > 100 µM (inactive); GI50 [11]: > 100 µM (inactive); GI50 [12]: > 100 µM; GI50 [49]: > 100 µM (inactive); GI50 [13]: 93.5 µM (inactive); GI50 [15]: > 100 µM (inactive); GI50 [16]: 4.38 µM (inactive); GI50 [50]: > 100 µM (inactive); GI50 [17]: 85.5 µM (inactive); GI50 [51]: 81.5 µM (inactive); GI50 [18]: > 100 µM (inactive); GI50 [52]: > 100 µM (inactive); GI50 [19]: > 100 µM (inactive); GI50 [20]: 99.3 µM (inactive); GI50 [21]: > 100 µM (inactive); GI50 [22]: 33.3 µM (inactive); GI50 [53]: > 100 µM (inactive); GI50 [24]: 28.2 µM (inactive); GI50 [25]: 77.3 µM (inactive); GI50 [26]: 88.9 µM (inactive); GI50 [54]: > 100 µM (inactive); GI50 [27]: > 100 µM (inactive); GI50 [28]: > 100 µM (inactive); GI50 [29]: > 100 µM (inactive); GI50 [55]: 94.4 µM (inactive); GI50 [30]: > 100 µM (inactive); GI50 [1]: > 100 µM (inactive); GI50 [56]: > 100 µM (inactive); GI50 [31]: 89.3 µM (inactive); GI50 [32]: > 100 µM (inactive); GI50 [57]: 80.2 µM (inactive); GI50 [33]: > 100 µM (inactive); GI50 [34]: > 100 µM (inactive); GI50 [35]: > 100 µM (inactive); GI50 [36]: > 100 µM (inactive); GI50 [37]: > 100 µM (inactive); GI50 [38]: > 100 µM (inactive); GI50 [39]: > 100 µM (inactive); GI50 [41]: > 100 µM (inactive); GI50 [58]: > 100 µM (inactive); GI50 [42]: > 100 µM (inactive); GI50 [43]: > 100 µM (inactive); GI50 [44]: > 100 µM (inactive); GI50 [45]: > 100 µM (inactive); GI50 [46]: > 100 µM (inactive)

Reference: ChEMBL document CHEMBL1201862, “PubChem BioAssay data set” (2004)
